Data reported in patent publication US8791132B2, “Compounds and methods for treatment of hypertension” (Medivation Technologies, Inc., priority 2011, dated 2014).
Where two headings read alike, the source gives them in different places.

Columns and labels:
[1] = target: T1, human recombinant adrenergic α1D receptor (Homo sapiens, UniProt P25100); assay: Radioligand binding, adrenergic α1D ([3H]Prazosin); conditions: [3H]Prazosin
T1 construct: expressed in transfected cells; host or cells: HEK-293
T1 sequence (P25100 1-572): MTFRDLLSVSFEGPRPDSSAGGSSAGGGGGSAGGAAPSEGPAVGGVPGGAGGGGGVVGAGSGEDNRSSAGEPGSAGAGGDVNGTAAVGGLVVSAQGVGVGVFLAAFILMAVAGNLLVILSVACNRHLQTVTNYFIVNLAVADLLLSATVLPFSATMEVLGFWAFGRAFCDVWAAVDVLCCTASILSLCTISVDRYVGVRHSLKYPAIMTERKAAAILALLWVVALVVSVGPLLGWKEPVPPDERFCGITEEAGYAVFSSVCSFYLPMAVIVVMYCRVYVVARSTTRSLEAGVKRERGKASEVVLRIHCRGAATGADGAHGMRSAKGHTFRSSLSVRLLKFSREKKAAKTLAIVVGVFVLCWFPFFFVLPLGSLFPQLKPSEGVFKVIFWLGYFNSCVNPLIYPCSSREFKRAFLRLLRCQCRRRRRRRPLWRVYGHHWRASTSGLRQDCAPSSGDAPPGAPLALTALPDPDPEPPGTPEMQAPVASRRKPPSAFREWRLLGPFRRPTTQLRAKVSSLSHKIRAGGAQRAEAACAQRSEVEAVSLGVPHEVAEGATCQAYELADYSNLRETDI
Description: Compounds were incubated with 0.6 nM [3H]Prazosin for 60 min at 25° C. Non-specific binding was estimated in the presence of 10 μM phentolamine. Receptor proteins were filtered and washed, the filters were then counted to determine [3H]Prazosin specifically bound. […] Biochemical assay results are presented as the percent inhibition of specific binding in Table B1.

[2] = tested on: spontaneously hypertensive rats (SHR); assay: Blood pressure in spontaneously hypertensive rat (SHR) model of hypertension; assay type: in vivo; conditions: for systolic blood pressure lowering effects: escalating doses 1, 3, 10 and 30 mg/kg/iv for every 30 minutes (FIGS. 20-22)
Description: Male spontaneously hypertensive rats (SHR), approximately 3 months of age and weighting approximately 250 grams were utilized. Free access to standard lab chow for rats and reverse osmosis (RO) water was granted. All aspects of this work, including housing, experimentation and disposal of animals were performed in general accordance with the Guide for the Care and Use of Laboratory Animals (National Academy Press, Washington, D.C., 1996).
The animals were anaesthetized with sodium pentobarbital (50 mg/kg IP). The left carotid artery when compound dosed orally (PO) or subcutaneously (SC); and both left carotid and femoral artery when compound dosed intravenous (i.v.) were cannulated with a polyethylene catheter (38 cm in length; PE60, Portex, Ltd.) connected with a polyurethane tubing (12 cm in length; PU-40, Cat. #BB520-40, Scientific Commodities, Inc.), which was tunneled under the skin and exited through the nape of the neck. The arterial cannula was connected to a pressure transducer through a swivel system, allowing free roaming during continuous recording of mean arterial pressure and heart rate. The animals were housed individually with food and water freely available during recovery. On the following day, the arterial cannula was connected via a Statham (P 23×L) pressure transducer to a NEC/San-Ei amplifier and data acquisition and analysis system (Power Lab 8/SP) for direct mean arterial pressure and heart rate measurements.
The test compounds, dissolved in sterile saline, were administered subcutaneously (SC) or orally (PO), or by intravenous (i.v.) bolus administration in two minutes or the escalating doses of compound administration in every 30 minutes, with each dose and its strength delivered over 2 minutes as shown in the respective figures; the internal standard phentolamine was given by oral gavage. The control group received vehicle alone. Immediately before (−10 min and −5 min) and at 15 min, 30 min, 1 hr, 1.5 hr, 2 hr, 2.5 hr, 3 hr, 3.5 hr, and 4 hr post-dosing, systolic pressure blood pressure values were recorded.

[3] = read-out: Percentage inhibition of ligand binding, Adrenergic α1D (0.1 μM), compound at 0.1 μM, repeat datapoints each shown
[4] = SC or PO, 4 hour study period (FIGS. 7-10)
[5] = compound at 0.03 μM, repeat assays, each datapoint shown, read-out: Percentage inhibition of ligand binding, Adrenergic α1D
[6] = compound at 0.1 μM, repeat assays, each datapoint shown, read-out: Percentage inhibition of ligand binding, Adrenergic α1D
[7] = read-out: Percentage inhibition of ligand binding, Adrenergic α1D (0.03 μM), compound at 0.03 μM, repeat datapoints each shown
[8] = compound at 0.1 μM, repeat datapoints each shown, 0.1 µM

Cc1ccc(C(O)Cn2c3c(c4cc(C)ccc42)CN(C)CC3)cc1 (racemic) [compound 183, racemic-2-(1,2,3,4-tetrahydro-2,8-dimethylpyrido[4,3-b]indol-5-yl)-1-p-tolylethanol]
inhibition at 0.1 µM [1, 3]: 36%

Cc1ccc2c(c1)c1c(n2CC(O)c2ccncc2)CCN(C)CC1 (single isomer, unassigned) [13b, 2-(3,9-dimethyl-2,3,4,5-tetrahydroazepino[4,5-b]indol-6(1H)-yl)-1-(pyridin-4-yl)ethanol]
systolic blood pressure [2, 4]: lowered systolic blood pressure

Cc1cnc2c(c1)c1c(n2CC(C)(O)c2cccnc2)CCN2CCCC12 (single isomer, unassigned) [26a]
systolic blood pressure lowering effects [2]: robust

Cc1ccc2c(c1)c1c(n2CC(N)c2ccncc2)CCN(C)C1 (single isomer, unassigned) [27a, 2-(1,2,3,4-tetrahydro-2,8-dimethylpyrido[4,3-b]indol-5-yl)-1-(pyridin-4-yl)ethanamine]
systolic blood pressure lowering effects [2]: robust | heart rate ([2]; when systolic blood pressure falls (data not shown)): neutral effect on heart rate

CN1CCc2c(n(CC(O)c3ccncc3)c3ccc(Cl)cc23)C1 (single isomer, unassigned) [41a]
systolic blood pressure [2, 4]: markedly lowered blood pressure

Cc1cnc2c(c1)c1c(n2CCc2ccc(C)nc2)CCN2CCCC12 (single isomer, unassigned) [74a, 10-methyl-7-(2-(6-methylpyridin-3-yl)ethyl)-2,3,5,6,7,11c-hexahydro-1H-pyrido[3′,2′:4,5]pyrrolo[2,3-g]indolizine]
inhibition at 0.03 µM [1, 5]: 42% | inhibition at 0.1 µM [1, 6]: 61%

Cc1ccc2c(c1)c1c(n2CC(O)c2ccncc2)CCN2CCCC12 (single isomer, unassigned) [129d]
heart rate ([2]; oral or iv bolus or i.v. escalating doses): tachycardia | effects on systolic blood pressure ([2]; oral or iv bolus or i.v. escalating doses (FIGS. 23-25)): robust

Cc1ccc2c(c1)c1c(n2CC(O)c2ccc(C(N)=O)nc2)CCN(C)C1 (single isomer, unassigned) [144b, 5-[2-(2,8-dimethyl-1,2,3,4-tetrahydro-pyrido[4,3-b]indol-5-yl)-1-hydroxy-ethyl]-pyridine-2-carboxylic acid amide]
systolic blood pressure ([2]; i.v. bolus in 2 minutes (FIG. 19)): marked reduction in systolic blood pressure

Cc1ccc2c(c1)c1c(n2CC(C)(O)c2cnccn2)CCN2CCCC12 (single isomer, unassigned) [176a]
systolic blood pressure lowering effects [2]: robust

Cc1cnc2c(c1)c1c(n2CCc2ccc(C)nc2)CCN(C)C1 [II-110, 3,6-dimethyl-9-(2-(6-methylpyridin-3-yl)ethyl)-6,7,8,9-tetrahydro-5H-pyrrolo[2,3-b:4,5-c′]dipyridine]
inhibition at 0.1 µM [1, 3]: 17%

Cc1ccc2c(c1)c1c(n2CC(C)(O)c2cccnc2)CCN(C)C1 (stereo not shown) [compound 5, 1-(1,2,3,4-tetrahydro-2,8-dimethylpyrido[4,3-b]indol-5-yl)-2-(pyridin-3-yl)propan-2-ol]
inhibition at 0.1 µM [1, 6]: 4%

Cc1ccc2c(c1)c1c(n2CCc2cccnc2)CCN(C)C1 [compound 61]
inhibition at 0.03 µM [1, 5]: 14% | inhibition at 0.1 µM [1, 6]: 37%

Cc1ccc2c(c1)c1c(n2CC2(c3ccccc3)OCCO2)CCN(C)C1 [compound 83]
inhibition at 0.1 µM [1, 6]: 13%

CCN1CCc2c(c3cc(C)ccc3n2CCc2ccncc2)C1 [compound 85]
inhibition at 0.1 µM [1, 6]: 17%

Cc1ccc2c(c1)c1c(n2CCc2ccc(CO)nc2)CCN(C)C1 [compound 91]
Percentage inhibition of ligand binding, Adrenergic α1D ([1]; compound at 0.03 μM, repeat assays, each datapoint shown, 0.03 µM): 11% | inhibition at 0.03 µM [1, 5]: 7% | Percentage inhibition of ligand binding, Adrenergic α1D ([1]; compound at 0.1 μM, repeat assays, each datapoint shown, 0.1 µM): 30% | inhibition at 0.1 µM [1, 6]: 25% | inhibition at 0.03 µM [1, 7]: 21% | inhibition at 0.1 µM [1, 3]: 32%

Cc1ccc2c(c1)c1c(n2CC(C)(O)c2ccc(O)cc2)CCN(C)C1 (stereo not shown) [compound 98]
Percentage inhibition of ligand binding, Adrenergic α1D (0.1 μM) [1, 8]: 35% | inhibition at 0.1 µM [1, 3]: 31%

C/C(=C\n1c2c(c3cc(C)ccc31)CN(C)CC2)c1ccncn1 [compound 101]
Percentage inhibition of ligand binding, Adrenergic α1D (0.1 μM) [1, 8]: 48% | inhibition at 0.1 µM [1, 3]: 45%

Cc1ccc2c(c1)c1c(n2C2=C(c3ccncc3)CCC2)CCN(C)C1 [compound 114]
inhibition at 0.1 µM [1, 3]: 15%

Cc1ccc2c(c1)c1c(n2CNc2ccccn2)CCN(C)C1 [compound 120, (2,8-dimethyl-1,2,3,4-tetrahydro-pyrido[4,3-b]indol-5-ylmethyl)-pyridin-2-yl-amine]
Percentage inhibition of ligand binding, Adrenergic α1D (0.1 μM) [1, 8]: 26% | inhibition at 0.03 µM [1, 7]: 3% | inhibition at 0.1 µM [1, 3]: 14%

Cc1ccc(CCn2c3c(c4cc(C)ccc42)CN(C)CC3)cc1 [compound 180, 2,3,4,5-tetrahydro-2,8-dimethyl-5-(4-methylphenethyl)-1H-pyrido[4,3-b]indole]
inhibition at 0.1 µM [1, 3]: 74%

Cc1ccc(CCn2c3c(c4ccccc42)CN(C)CC3)cc1 [compound 181, 2,3,4,5-Tetrahydro-2-methyl-5-(4-methylphenethyl)-1H-pyrido[4,3-b]indole]
inhibition at 0.1 µM [1, 3]: 32%

CN1CCc2c(c3ccccc3n2CCc2ccccc2)C1 [compound 182, 2,3,4,5-Tetrahydro-2-methyl-5-phenethyl-1H-pyrido[4,3-b]indole]
inhibition at 0.1 µM [1, 3]: 16%

C/C(=C\n1c2c(c3cc(Cl)ccc31)CN(C)CC2)c1ccncc1 [compound 185, 8-chloro-2,3,4,5-tetrahydro-2-methyl-5-((E)-2-(pyridin-4-yl)prop-1-enyl)-1H-pyrido[4,3-b]indole]
inhibition at 0.03 µM [1, 7]: 47% | inhibition at 0.1 µM [1, 3]: 58%

C/C(=C\n1c2c(c3cc(C)ccc31)CN(C)CC2)c1ccc(C)nc1 [compound 186]
Percentage inhibition of ligand binding, Adrenergic α1D (0.1 μM) [1, 8]: 55% | inhibition at 0.03 µM [1, 7]: 31% | inhibition at 0.1 µM [1, 3]: 51%

C/C(=C\n1c2c(c3cc(C)ccc31)CN(C)CC2)c1cnc(N(C)C)nc1 [compound 187]
inhibition at 0.1 µM [1, 3]: 83%

C/C(=C\n1c2c(c3cc(C)ccc31)CN(C)CC2)c1sccc1C [compound 189]
inhibition at 0.1 µM [1, 3]: 16%

Cc1ccc2c(c1)c1c(n2C2=C(c3ccc(C)s3)CCC2)CCN(C)C1 [compound 190, 2,8-dimethyl-5-(2-(5-methylthiophen-2-yl)cyclopent-1-enyl)-2,3,4,5-tetrahydro-1H-pyrido[4,3-b]indole]
inhibition at 0.1 µM [1, 3]: 31%

Cc1ccc2c(c1)c1c(n2C2=C(c3ccc4c(ccn4C)c3)CCC2)CCN(C)C1 [compound 191, 2,8-dimethyl-5-(2-(1-methyl-1H-indol-5-yl)cyclopent-1-enyl)-2,3,4,5-tetrahydro-1H-pyrido[4,3-b]indole]
inhibition at 0.1 µM [1, 3]: 43%

CCN1CCc2c(c3cc(C)ccc3n2CCc2ccccc2)C1 [compound 201]
inhibition at 0.1 µM [1, 3]: 18%

CCN1CCc2c(c3cc(C)ccc3n2CCc2ccc(C)cc2)C1 [compound 202]
inhibition at 0.1 µM [1, 3]: 52%

CCN1CCc2c(c3cc(C)ccc3n2CC(O)c2ccc(C)cc2)C1 (stereo not shown) [compound 203]
inhibition at 0.1 µM [1, 3]: 47%

CN1CCc2c(c3cccc(Cl)c3n2CCc2ccccc2)C1 [compound 216]
inhibition at 0.03 µM [1, 7]: 38%

COc1ccc(/C(C)=C/n2c3c(c4cc(Cl)ccc42)CCN(C)CC3)cc1F [compound 240]
Percentage inhibition of ligand binding, Adrenergic α1D (0.1 μM) [1, 8]: 47% | inhibition at 0.1 µM [1, 3]: 44%

COc1ccc(/C(C)=C/n2c3c(c4cc(C)ccc42)CCN(C)CC3)cc1F [compound 241]
Percentage inhibition of ligand binding, Adrenergic α1D (0.1 μM) [1, 8]: 49% | inhibition at 0.1 µM [1, 3]: 47%
